# Data from patent publication US10294202B2, “Pyrrolidinones as herbicides” (FMC Corporation, priority 2013, dated 2019).
# Legend:
# kochia = test: Test A pre-/postemergence herbicide test; assay type: in vivo, Kochia scoparia
# From the text: (§1) Seeds of plant species selected from bamyardgrass (Echinochloa crus-galli), kochia (Kochia scoparia), ragweed (common ragweed, Ambrosia elatior), ryegrass, Italian (Italian ryegrass, Lolium multiflorum), crabgrass, large (large crabgrass Digitaria sanguinalis), giant foxtail (Setaria faberii), morningglory (Ipomoea spp.), pigweed (Amaranthus retroflexus), velvetleaf (Abutilon theophrasti), wheat (Triticum aestivum), and corn (Zea mays) were planted into a blend of loam soil and sand and treated preemergence with a directed soil spray using test chemicals formulated in a non-phytotoxic solvent mixture which included a surfactant. At the same time, plants selected from these crop and weed species and also blackgrass (Alopecurus myosuroides), and galium (catchweed bedstraw, Galium aparine) were planted in pots containing the same blend of loam soil and sand and treated with postemergence applications of test chemicals formulated in the same manner. Plants ranged in height from 2 to 10 cm and were in the one- to two-leaf stage for the postemergence treatment. Treated plants and untreated controls were maintained in a greenhouse for approximately 10 days, after which time all treated plants were compared to untreated controls and visually evaluated for injury. Plant response ratings, summarized in Table A, are based on a 0 to 100 scale where 0 is no effect and 100 is complete control. A dash (-) response means no test result.
# barnyardgrass = test: Test A pre-/postemergence herbicide test; assay type: in vivo, Echinochloa crus-galli
# Outline: (§2)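 Seeds sown in loam soil/sand blend received a preemergence directed soil spray of test chemical in non-phytotoxic solvent with surfactant; postemergence plants (2–10 cm, one- to two-leaf stage) were sprayed with the same formulation. After about 10 days in greenhouse, injury was rated visually versus untreated controls, 0 (no effect) to 100 (complete control).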
# pigweed = test: Test A pre-/postemergence herbicide test; assay type: in vivo, Amaranthus retroflexus
# Outline: as §2
# ryegrass, Italian = test: Test A pre-/postemergence herbicide test; assay type: in vivo, Lolium multiflorum
# From the text: as §1
# ragweed = test: Test A pre-/postemergence herbicide test; assay type: in vivo, Ambrosia elatior
# From the text: as §1
# giant foxtail = test: Test A pre-/postemergence herbicide test; assay type: in vivo, Setaria faberii
# Outline: as §2
# blackgrass = test: Test A postemergence herbicide test; assay type: in vivo, Alopecurus myosuroides; conditions: for Blackgrass plant response rating (0 to 100 scale, 0 is no effect, 100 is complete control): 500 g ai/ha
# Outline: (§3)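 Potted in loam soil/sand blend; postemergence application at 1–2 leaf stage (2–10 cm). Greenhouse ~10 d. Visual injury vs untreated, 0–100 scale; 100 = complete control.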
# wheat = test: Test A pre-/postemergence herbicide test; assay type: in vivo, Triticum aestivum; conditions: Postemergence; for Wheat plant response rating (0 to 100 scale, 0 is no effect, 100 is complete control): 500 g ai/ha
# Outline: as §2
# corn = test: Test A pre-/postemergence herbicide test; assay type: in vivo, Zea mays; conditions: Postemergence; for Corn plant response rating (0 to 100 scale, 0 is no effect, 100 is complete control): 500 g ai/ha
# Outline: as §2
# galium = test: Test A postemergence herbicide test; assay type: in vivo, Galium aparine; conditions: for Galium plant response rating (0 to 100 scale, 0 is no effect, 100 is complete control): 500 g ai/ha
# Outline: as §3
# [1] = 125 g ai/ha, visual rating, 0 to 100 scale, 0 no effect, 100 complete control, approximately 10 days, preemergence
# [2] = Postemergence, 125 g ai/ha, 0 to 100 scale, 0 no effect, 100 complete control
# [3] = preemergence, 500 g ai/ha, 0 to 100 scale
# [4] = preemergence, 500 g ai/ha, 0 to 100 scale (0 no effect, 100 complete control)
# [5] = 125 g ai/ha, 0 to 100 scale, 0 no effect, 100 complete control
# [6] = Postemergence, 1000 g ai/ha, 0 to 100 scale (0 no effect, 100 complete control)
# [7] = preemergence, 1000 g ai/ha, 0 to 100 scale
# [8] = 1000 g ai/ha, 0 to 100 scale (0 no effect, 100 complete control)
# [9] = Postemergence, 125 g ai/ha, 0 to 100 scale, 0 is no effect, 100 is complete control
# [10] = preemergence, 500 g ai/ha, 0 to 100 scale, 0 is no effect and 100 is complete control
# [11] = 125 g ai/ha, 0 to 100 scale, 0 is no effect, 100 is complete control
smiles,measurement,setting,value
Cc1ccc(C2CNC(=O)C2C(=O)Nc2ccc(F)cc2F)cc1F (racemic) [Compound 145],"Plant response rating, Kochia",kochia; [1],0
same,"Plant response rating, Kochia",kochia; [2],0
same,"Kochia plant response rating (0 to 100 scale, 0 is no effect, 100 is complete control)","kochia; Postemergence, 500 g ai/ha",20
same,"Plant response rating, Kochia",kochia; [3],0
same,"Plant response rating, Barnyardgrass",barnyardgrass; [1],80
same,"Plant response rating, Barnyardgrass",barnyardgrass; [2],70
same,"Barnyardgrass plant response rating (0 to 100 scale, 0 is no effect, 100 is complete control)","barnyardgrass; Postemergence, 500 g ai/ha",90
same,"Plant response rating, Barnyardgrass",barnyardgrass; [4],90
same,"Plant response rating, Pigweed",pigweed; [1],0
same,"Plant response rating, Pigweed",pigweed; [2],0
same,"Pigweed plant response rating (0 to 100 scale, 0 is no effect, 100 is complete control)","pigweed; Postemergence, 500 g ai/ha",0
same,"Plant response rating, Pigweed",pigweed; [3],0
same,"Plant response rating, Ryegrass, Italian","ryegrass, Italian; [1]",0
same,"Plant response rating, Ryegrass, Italian","ryegrass, Italian; [2]",0
same,"Ryegrass, Italian plant response rating (0 to 100 scale, 0 is no effect, 100 is complete control)","ryegrass, Italian; Postemergence, 500 g ai/ha",0
same,"Plant response rating, Ryegrass, Italian","ryegrass, Italian; [3]",0
same,"Plant response rating, Ragweed",ragweed; [1],0
same,"Plant response rating, Ragweed",ragweed; [2],0
same,"Ragweed plant response rating (0 to 100 scale, 0 is no effect, 100 is complete control)","ragweed; Postemergence, 500 g ai/ha",20
same,"Plant response rating, Ragweed",ragweed; [3],0
same,"Plant response rating, Foxtail, Giant",giant foxtail; [1],70
same,"Plant response rating, Foxtail, Giant",giant foxtail; [2],40
same,"Foxtail, Giant plant response rating (0 to 100 scale, 0 is no effect, 100 is complete control)","giant foxtail; Postemergence, 500 g ai/ha",70
same,"Plant response rating, Foxtail, Giant",giant foxtail; [3],90
same,"Plant response rating, Blackgrass",blackgrass; [5],0
same,"Blackgrass plant response rating (0 to 100 scale, 0 is no effect, 100 is complete control)",blackgrass,30
same,"Plant response rating, Wheat",wheat; [5],0
same,"Wheat plant response rating (0 to 100 scale, 0 is no effect, 100 is complete control)",wheat,0
same,"Plant response rating, Corn",corn; [5],0
same,"Corn plant response rating (0 to 100 scale, 0 is no effect, 100 is complete control)",corn,0
same,"Plant response rating, Galium",galium; [5],20
same,"Galium plant response rating (0 to 100 scale, 0 is no effect, 100 is complete control)",galium,50
O=C1NCC(c2cccc(-c3ccccc3C(F)(F)F)c2)C1C(=O)Nc1ccccc1C(F)(F)F (centres unmarked) [Compound 237],"Plant response rating, Kochia",kochia; [6],0
same,"Plant response rating, Kochia",kochia; [7],0
same,"Plant response rating, Barnyardgrass",barnyardgrass; [6],20
same,"Plant response rating, Barnyardgrass","barnyardgrass; preemergence, 1000 g ai/ha, 0 to 100 scale (0 no effect, 100 complete control)",60
same,"Plant response rating, Pigweed",pigweed; [6],0
same,"Plant response rating, Pigweed",pigweed; [7],0
same,"Plant response rating, Ryegrass, Italian","ryegrass, Italian; [6]",0
same,"Plant response rating, Ryegrass, Italian","ryegrass, Italian; [7]",0
same,"Plant response rating, Ragweed",ragweed; [6],0
same,"Plant response rating, Ragweed",ragweed; [7],0
same,"Plant response rating, Foxtail, Giant",giant foxtail; [6],0
same,"Plant response rating, Foxtail, Giant",giant foxtail; [7],80
same,"Plant response rating, Blackgrass",blackgrass; [8],0
same,"Plant response rating, Wheat",wheat; [8],0
same,"Plant response rating, Corn",corn; [8],0
same,"Plant response rating, Galium",galium; [8],0
O=C1NCC(c2cc(F)cc(F)c2)C1C(=O)Nc1ccc(F)cc1F (racemic) [Compound 156],"Plant response rating, Kochia",kochia; [1],20
same,"Plant response rating, Kochia",kochia; [9],0
same,"Kochia plant response rating (0 to 100 scale, 0 is no effect, 100 is complete control)","kochia; Postemergence, 500 g ai/ha",20
same,"Plant response rating, Kochia",kochia; [10],40
same,"Plant response rating, Barnyardgrass",barnyardgrass; [1],90
same,"Plant response rating, Barnyardgrass",barnyardgrass; [9],80
same,"Barnyardgrass plant response rating (0 to 100 scale, 0 is no effect, 100 is complete control)","barnyardgrass; Postemergence, 500 g ai/ha",80
same,"Plant response rating, Barnyardgrass",barnyardgrass; [4],90
same,"Plant response rating, Pigweed",pigweed; [1],0
same,"Plant response rating, Pigweed",pigweed; [9],0
same,"Pigweed plant response rating (0 to 100 scale, 0 is no effect, 100 is complete control)","pigweed; Postemergence, 500 g ai/ha",20
same,"Plant response rating, Pigweed",pigweed; [10],0
same,"Plant response rating, Ryegrass, Italian","ryegrass, Italian; [1]",0
same,"Plant response rating, Ryegrass, Italian","ryegrass, Italian; [9]",20
same,"Ryegrass, Italian plant response rating (0 to 100 scale, 0 is no effect, 100 is complete control)","ryegrass, Italian; Postemergence, 500 g ai/ha",30
same,"Plant response rating, Ryegrass, Italian","ryegrass, Italian; [10]",30
same,"Plant response rating, Ragweed",ragweed; [1],0
same,"Plant response rating, Ragweed",ragweed; [9],0
same,"Ragweed plant response rating (0 to 100 scale, 0 is no effect, 100 is complete control)","ragweed; Postemergence, 500 g ai/ha",30
same,"Plant response rating, Ragweed",ragweed; [10],0
same,"Plant response rating, Foxtail, Giant",giant foxtail; [1],90
same,"Plant response rating, Foxtail, Giant",giant foxtail; [9],80
same,"Foxtail, Giant plant response rating (0 to 100 scale, 0 is no effect, 100 is complete control)","giant foxtail; Postemergence, 500 g ai/ha",80
same,"Plant response rating, Foxtail, Giant",giant foxtail; [3],90
same,"Plant response rating, Blackgrass",blackgrass; [11],0
same,"Blackgrass plant response rating (0 to 100 scale, 0 is no effect, 100 is complete control)",blackgrass,20
same,"Plant response rating, Wheat",wheat; [11],0
same,"Wheat plant response rating (0 to 100 scale, 0 is no effect, 100 is complete control)",wheat,40
same,"Plant response rating, Corn",corn; [11],20
same,"Corn plant response rating (0 to 100 scale, 0 is no effect, 100 is complete control)",corn,30
same,"Plant response rating, Galium",galium; [11],20
same,"Galium plant response rating (0 to 100 scale, 0 is no effect, 100 is complete control)",galium,30
